# Reference: US7745493B2, “Methods of treating tardive dyskinesia and other movement disorders” (priority 1998, dated 2010)
# Legend:
# Assay type in all cases: in vivo, human
# [1] = system: person two with long-standing TD; assay: Simple Reaction Time (neuropsychological test, Case 1); conditions: lower score better
# Experimental: On acamprosate, the patient was able to sustain concentration for prolonged periods. […] The patient's cognitive improvement was also assessed using formal neuropsychological measures. The patient was tested while on the drug, then taken off of the drug and tested two days later. On the drug, the patient was able to recall 13 of the 15 items after a short delay as well as 13 of the 15 items after a long delay, as measured by the Rey Auditory Verbal Learning Test. This was in comparison to the patient's ability while off the drug to recall only 7 of the 15 items after a short delay as well as 8 of the items after a long delay in tests performed. In addition, the patient was able to recognize all 15 of the items while on acamprosate but while off the drug (and while having been off of memantine for over 2 months) the patient could only recognize 10 of the items. The order of testing would give the advantage of familiarity to the off-drug condition. Nonetheless, the difference in favor of the on-drug condition was substantial.
# (§1) The tests showing such results included Simple Reaction Time, the Trail Making Test (both parts) and the Paced Auditory Serial Addition Test (PASAT). Choice reaction time, a test requiring both basic attention and concentration on a specific task that must be kept in mind, was slightly better on acamprosate, consistent with the hypothesis that general cognitive function, as opposed to simple attention, improves with acamprosate treatment.
# (§2) The following tables report on the results of the neuropsychological tests (Drug I is memantine and Drug II is acamprosate): […]
# [2] = system: person two with long-standing TD; assay: Motor Functions: Grooved Functions (Case 1); conditions: ON drug, lower score better; for Grooved Functions sec. DH: DH = right
# Description: as §2
# [3] = system: person with extremely severe tardive dyskinesia and dystonia; assay: Case Report 4: clinical course and physician examination; conditions: Case 4
# [4] = system: person two with long-standing TD; assay: Choice Reaction Time (Case 1); conditions: lower score better
# Description: as §1, §2
# [5] = system: person two with Parkinson's disease and peak-dose dyskinesia; assay: Case Report 3: peak-dose dyskinesia of treated Parkinson's disease; conditions: Case 3; for effect on peak-dose dyskinesia: added to antiparkinson regime, memantine 10 mg three times a day, acamprosate 666 mg three times, then 333 mg four times a day, baclofen 30 and 60 mg daily, magnesium 300 mg three times a day
# Experimental: The patient's Parkinson's disease was treated using levodopa/carbidopa and bromocriptine.
# Prior to beginning treatment with acamprosate, the patient was on an antiparkinson treatment regime that consisted of 1 mg of pergolide three times a day, 5 mg of selegiline twice a day, and a combination of levodopa/carbidopa consisting of 550-600 mg of levodopa and 125-150 mg of carbidopa administered in divided doses.
# The patient began acamprosate as an addition to the antiparkinson regime described above. Initially, the patient received 666 mg of acamprosate administered three times a day. Two weeks later the regime was adjusted such that the patient received 333 mg of acamprosate four times a day, taking one 333 mg pill with each daytime dose of 100 mg levodopa and 25 mg carbidopa. The patient's bedtime does of controlled-release levodopa-carbidopa (200 mg of levodopa and 50 mg of carbidopa) was continued, but were given without acamprosate. […] To confirm that the patient's improvement was due to the administration of acamprosate, the patient was taken off the acamprosate. […] During the period off acamprosate, an attempt was made to replace acamprosate with baclofen (a GABA-receptor agonist) at a total daily dose of 30 mg, and then with baclofen at a total daily dose of 60 mg.
# Several months later, magnesium (300 mg elemental magnesium, as a mixed chelate), was added to the regimen. It was taken three times a day, together with a one of the patient's regular doses of levodopa/carbidopa. […] To establish whether the improvement was due to magnesium, the magnesium was stopped after several weeks.
# [6] = system: person two with long-standing TD; assay: Paced Auditory Serial Addition Test (PASAT) (Case 1); conditions: lower score better
# Description: as §1, §2
# [7] = system: person one with long-standing TD; assay: Case Report 2: clinical observation of TD; conditions: Case 2; for effect on involuntary movements of TD: acamprosate 666 mg three times daily added to memantine, magnesium oxide 250 mg three times a day added to acamprosate; for cognitive symptoms / memory: subjective
# Description: person one had long-standing TD following decades of treatment with the neuroleptic drug perphenazine. Their involuntary movements comprised bilateral chorea of the upper extremities, plus writhing of the tongue and tongue-biting. Both of the latter movements led to a very sore tongue. In addition, the patient experienced impairment of their short-term memory, which was attributed primarily to cerebrovascular disease.
# They also continued to have a sore tongue. […] In addition to memantine, the patient regularly took antiepileptic drugs (gabapentin and lamotrigine), antiplatelet agents (aspirin and ticlopidine), as well as medications for hypertension, glaucoma and gastrointestinal symptoms (isosorbide mononitrate, metoprolol, timolol eye drops and olsalazine).
# The patient was placed on a treatment regime that included administration of 666 mg of acamprosate, three times daily. In this case, acamprosate was added to the patient's regimen, which continued to include memantine. […] Despite past evidence from formal testing that the patient had impaired short-term memory, they performed normally on a two-sentence memory task, which involved testing the patient's recall ability using two sentences containing 13 separate details. On the two-sentence memory task, within three attempts the patient was able to recall 9 details and, using a multiple choice format, was able to recall a total of 11 details. Recall of 9 details on the third attempt would be normal for a middle-aged adult, let alone one […].
# After a full year on memantine and acamprosate, the memantine was discontinued, with little change in the patient's symptoms.
# Magnesium oxide, 250 mg three times a day, was added, each dose being taken together with the acamprosate. […] The effect was definite: movements worsened when magnesium oxide was stopped and improved when it was restarted. After a month on magnesium, the dosage of acamprosate was increased to 666 mg four times a day, with 250 mg of magnesium oxide given together with each dose. […] The only residual sign of TD was a mild degree of involuntary movement of the hands.
# [8] = system: person two with long-standing TD; assay: Case Report 1: clinical observation of TD with blepharospasm; conditions: Case 1; for effect on involuntary movements of TD: clinical observation, acamprosate 333 mg four times a day; for cognitive function (energy, attention, concentration): subjective and objective
# Experimental: Palliative treatment with alprazolam (an anxiolytic and GABA agonist via modulation; dosage 0.25 mg four times a day) and trihexyphenidyl (an anticholinergic antiparkinson drug that inhibits dopamine re-uptake at synapses; dosage 2 mg twice a day) was prescribed by another physician.
# Initially, their other medications were maintained unchanged.
# Nimodipine was discontinued, and the patient was begun on memantine at a dosage of 10 mg twice a day.
# For the following 10 days they added 250 mg three times a day of chelated magnesium.
compound,measurement,setting,value
"CC(=O)NCCCS(=O)(=O)O [acamprosate, calcium N-acetylhomotaurinate]",Simple Reaction Time 500 Green,[1]; ON drug,286 ms
same,Simple Reaction Time 500 Red,[1]; ON drug,272 ms
same,Simple Reaction Time 1500 Green,[1]; ON drug,261 ms
same,Simple Reaction Time 1500 Red,[1]; ON drug,264 ms
same,Grooved Functions sec. DH,[2],DH = 61″
same,Grooved Functions sec. NDH,[2],NDH = 70″
same,time after resuming drug until previous level of benefit regained,[3],72 h
same,time off drug until movement disorder returned to baseline,[3],24 h
same,Choice Reaction Time 500 Green,[4]; ON drug,382 ms
same,Choice Reaction Time 500 Red,[4]; ON drug,426 ms
same,Choice Reaction Time 1500 Green,[4]; ON drug,408 ms
same,Choice Reaction Time 1500 Red,[4]; ON drug,379 ms
same,effect on levodopa/carbidopa treatment of hypokinesia and rigidity,[5],no decrease in the efficacy
same,periods without dyskinesia following each dose,[5],up to two hours
same,time to return of dyskinetic movements after stopping,[5],Within one day
same,effect on peak-dose dyskinesia,[5],reduced from moderate to mild intensity
same,PASAT 1.2 sec ISI errors,[6]; ON drug,13/49
same,PASAT 1.6 sec ISI errors,[6]; ON drug,11/49
same,PASAT 2.0 sec ISI errors,[6]; ON drug,1/49
same,PASAT 2.4 sec ISI errors,[6]; ON drug,4/49
same,persistent symptoms on acamprosate after memantine discontinued,[7]; 666 mg three times a day,"mild choreatic movements on the hands, mild involuntary movements of the tongue and jaw"
same,effect on involuntary movements of TD,[7],chorea and tongue-biting stopped completely
same,cognitive symptoms / memory,[7],memory improved
same,involuntary movements two months after reinstitution,[8],absent except for very mild movements during times of stress
same,"time to recovery of energy, stamina, concentration and memory after re-instituting treatment",[8],Within two days
same,time able to read a book,[8]; 333 mg four times a day,over an hour at a time
same,effect on involuntary movements of TD,[8]; memantine 10 mg twice a day,became imperceptible
same,fatigue,[8]; on the acamprosate regime,significantly decreased
same,"cognitive function (energy, attention, concentration)",[8],improved significantly
CC12CC3CC(C)(C1)CC(N)(C3)C2 [memantine],Simple Reaction Time 500 Green,[1],284 ms
same,Simple Reaction Time 500 Red,[1],266 ms
same,Simple Reaction Time 1500 Green,[1],212 ms
same,Simple Reaction Time 1500 Red,[1],224 ms
same,Grooved Functions sec. DH,[2],DH = 71″
same,Grooved Functions sec. NDH,[2],NDH = 70″
same,effect on movement disorder,[3]; memantine 10 mg three times a day added to acamprosate and magnesium sulfate,aggravated their movement disorder
same,Choice Reaction Time 500 Green,[4],362 ms
same,Choice Reaction Time 500 Red,[4],421 ms
same,Choice Reaction Time 1500 Green,[4],365 ms
same,Choice Reaction Time 1500 Red,[4],422 ms
same,effect on peak-dose dyskinesia,[5],reduced their dyskinetic movements from severe to mild-to-moderate
same,PASAT 1.2 sec ISI errors,[6],28/49
same,PASAT 1.6 sec ISI errors,[6],21/49
same,PASAT 2.0 sec ISI errors,[6],17/49
same,PASAT 2.4 sec ISI errors,[6],13/49
same,effect on involuntary movements of TD,[7],"improved, but continued at a mild-to-moderate level"
same,cognitive symptoms / memory,[7],did not improve
same,side effects at reduced dose,[8]; 5 mg three times a day,without perceptible side effects
same,time to reduction of involuntary movements,[8]; 10 mg twice a day,≤ 24 h
same,effect on involuntary movements of TD,[8]; memantine 10 mg twice a day,substantially greater degree than had been observed with nimodipine
same,adverse effects,"[8]; nimodipine 30 mg four times a day, memantine 10 mg twice a day",a sense of mild intoxication
same,"cognitive function (energy, attention, concentration)",[8],"improved energy, attention, and concentration"
